ChEMBL document CHEMBL1201862, “PubChem BioAssay data set” (2004)
Values belong to the compound of their own block, whether it stands above or below them. The source made the active and inactive calls.

Experiments:
[1] = tested on: HEK293; experiment: HEK293T cell viability loss, resazurin readout – resazurin fluorescence, cytotoxicity control for NF-kB activator project, SAR follow-up (AID 493251); format: functional, cell-based; conditions: Homo sapiens
[2] = biological target: T1, Insulin-degrading enzyme (Homo sapiens, UniProt P14735); experiment: recombinant IDE activation, cell-free – biochemical, fluorescence polarization, counter-screen for IDE activator project, dose response (AID 588681)
T1 sequence (P14735 whole entry): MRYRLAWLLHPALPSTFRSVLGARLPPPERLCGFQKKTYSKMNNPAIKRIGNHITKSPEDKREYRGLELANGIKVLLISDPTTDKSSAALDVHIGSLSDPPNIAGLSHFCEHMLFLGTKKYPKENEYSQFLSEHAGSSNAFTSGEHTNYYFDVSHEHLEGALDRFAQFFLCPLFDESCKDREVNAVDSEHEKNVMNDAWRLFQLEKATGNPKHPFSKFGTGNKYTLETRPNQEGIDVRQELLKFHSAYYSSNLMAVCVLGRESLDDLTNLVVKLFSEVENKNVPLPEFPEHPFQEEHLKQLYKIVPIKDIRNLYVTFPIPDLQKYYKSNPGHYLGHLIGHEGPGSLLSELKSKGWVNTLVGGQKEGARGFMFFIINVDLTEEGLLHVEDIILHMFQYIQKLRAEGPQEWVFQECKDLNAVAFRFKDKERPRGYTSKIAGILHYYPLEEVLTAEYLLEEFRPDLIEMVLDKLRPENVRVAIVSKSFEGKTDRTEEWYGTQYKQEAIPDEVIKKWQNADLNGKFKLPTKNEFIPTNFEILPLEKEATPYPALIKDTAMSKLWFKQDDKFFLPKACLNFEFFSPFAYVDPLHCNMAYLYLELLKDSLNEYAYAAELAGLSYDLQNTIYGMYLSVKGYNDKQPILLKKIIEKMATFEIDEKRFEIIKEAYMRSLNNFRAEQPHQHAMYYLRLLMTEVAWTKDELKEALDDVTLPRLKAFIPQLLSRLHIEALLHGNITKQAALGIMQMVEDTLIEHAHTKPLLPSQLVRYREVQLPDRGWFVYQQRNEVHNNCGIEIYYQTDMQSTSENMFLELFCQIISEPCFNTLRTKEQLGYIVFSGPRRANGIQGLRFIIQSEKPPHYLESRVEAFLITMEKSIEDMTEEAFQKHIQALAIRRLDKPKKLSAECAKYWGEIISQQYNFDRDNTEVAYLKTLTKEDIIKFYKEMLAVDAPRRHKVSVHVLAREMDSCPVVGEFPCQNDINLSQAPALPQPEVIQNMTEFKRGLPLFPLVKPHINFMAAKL

[3] = biological target: T1, Insulin-degrading enzyme; experiment: cellular IDE activation of Abeta substrate cleavage – fluorescence polarization, HEK cells, dose response (AID 588439); format: functional, cell-based
[4] = biological target: T2, Heat shock factor protein 1 (Mus musculus, UniProt P38532); experiment: decrease of HSF1-responsive luciferase luminescence – cell-based, NIH3T3, dose retest, confirmation (AID 2382); format: functional;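 also: NIH3T3 fibroblasts with HSF1-driven luciferase reporter stressed by proteasome inhibitor MG132; luminescence from HSF1-driven luciferase expression after 8 hours of MG132 stress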
T2 sequence (P38532 whole entry): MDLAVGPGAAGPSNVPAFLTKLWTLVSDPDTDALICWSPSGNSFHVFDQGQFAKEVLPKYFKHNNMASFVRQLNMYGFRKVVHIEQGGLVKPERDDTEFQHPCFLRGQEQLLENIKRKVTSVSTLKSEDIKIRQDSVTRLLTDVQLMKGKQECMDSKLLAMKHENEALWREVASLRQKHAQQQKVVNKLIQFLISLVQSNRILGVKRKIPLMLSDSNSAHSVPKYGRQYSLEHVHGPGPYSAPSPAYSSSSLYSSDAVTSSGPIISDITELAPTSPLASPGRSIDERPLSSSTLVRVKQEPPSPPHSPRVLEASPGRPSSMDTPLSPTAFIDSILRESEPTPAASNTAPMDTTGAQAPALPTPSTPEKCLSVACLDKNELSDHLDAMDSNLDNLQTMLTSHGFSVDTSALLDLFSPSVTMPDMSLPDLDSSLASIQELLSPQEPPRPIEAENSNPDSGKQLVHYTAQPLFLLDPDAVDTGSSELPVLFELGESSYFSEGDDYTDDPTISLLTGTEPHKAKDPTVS

[5] = biological target: Large T antigen (Simian virus 40, UniProt P03070); format: functional, Betapolyomavirus macacae;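 also: Confirmatory-stage PubChem screen for compounds that inhibit SV40 T antigen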
[6] = biological target: Beta Lactamase (Pseudomonas aeruginosa, UniProt Q932Y6); experiment: BLA reporter interference, concentration series – BLA reporter cells, FRET fluorescence, artefact control for TLR9-MyD88 binding inhibitor project, dose response (AID 588341); format: cell-based;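 also: cell based assay in CHO-K1 cells stably expressing beta-lactamase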
[7] = viability loss in THP-1 monocytes – THP-1 cells, cytotoxicity control for Vif-APOBEC3G degradation inhibitor project, dose response (AID 1117359); format: functional; conditions: THP-1
[8] = biological target: T3, Mitochondrial peptide methionine sulfoxide reductase (Bos taurus, UniProt P54149); experiment: Absorbance-based biochemical high throughput dose response assay for activators of Methionine sulfoxide reductase A (MsrA).; format: functional
T3 sequence (P54149 whole entry): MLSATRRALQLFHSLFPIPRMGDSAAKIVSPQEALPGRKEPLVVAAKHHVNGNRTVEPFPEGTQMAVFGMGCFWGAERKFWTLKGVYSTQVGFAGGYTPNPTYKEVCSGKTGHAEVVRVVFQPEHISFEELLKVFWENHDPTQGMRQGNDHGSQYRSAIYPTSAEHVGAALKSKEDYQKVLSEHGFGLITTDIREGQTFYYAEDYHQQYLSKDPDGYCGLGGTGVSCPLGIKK

[9] = biological target: SUMO-activating enzyme (Homo sapiens, UniProt Q9UBT2); experiment: blockers of SAE1/SAE2–UBC9 SUMO transfer – biochemical, HTRF, uHTS, primary screen (AID 2006); format: protein-complex assay
[10] = biological target: T4, Protein skinhead-1 (Caenorhabditis elegans, UniProt P34707); format: functional
T4 sequence (P34707 whole entry): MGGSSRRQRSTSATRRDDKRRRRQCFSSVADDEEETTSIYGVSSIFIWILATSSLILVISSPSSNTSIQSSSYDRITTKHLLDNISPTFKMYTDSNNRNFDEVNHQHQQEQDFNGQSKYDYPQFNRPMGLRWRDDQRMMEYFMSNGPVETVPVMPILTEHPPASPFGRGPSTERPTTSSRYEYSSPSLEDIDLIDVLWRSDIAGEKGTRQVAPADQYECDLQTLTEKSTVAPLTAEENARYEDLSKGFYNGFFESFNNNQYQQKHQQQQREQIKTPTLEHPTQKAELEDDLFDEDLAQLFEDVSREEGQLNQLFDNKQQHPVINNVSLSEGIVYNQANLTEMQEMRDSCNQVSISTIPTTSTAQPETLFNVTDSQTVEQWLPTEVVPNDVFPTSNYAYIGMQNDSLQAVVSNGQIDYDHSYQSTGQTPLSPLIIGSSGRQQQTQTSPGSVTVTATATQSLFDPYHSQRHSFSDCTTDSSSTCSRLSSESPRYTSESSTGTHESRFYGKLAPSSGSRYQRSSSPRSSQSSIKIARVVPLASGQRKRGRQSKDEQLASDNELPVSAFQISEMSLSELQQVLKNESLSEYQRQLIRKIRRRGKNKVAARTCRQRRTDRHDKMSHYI

Chain of Large T antigen (P03070 whole entry): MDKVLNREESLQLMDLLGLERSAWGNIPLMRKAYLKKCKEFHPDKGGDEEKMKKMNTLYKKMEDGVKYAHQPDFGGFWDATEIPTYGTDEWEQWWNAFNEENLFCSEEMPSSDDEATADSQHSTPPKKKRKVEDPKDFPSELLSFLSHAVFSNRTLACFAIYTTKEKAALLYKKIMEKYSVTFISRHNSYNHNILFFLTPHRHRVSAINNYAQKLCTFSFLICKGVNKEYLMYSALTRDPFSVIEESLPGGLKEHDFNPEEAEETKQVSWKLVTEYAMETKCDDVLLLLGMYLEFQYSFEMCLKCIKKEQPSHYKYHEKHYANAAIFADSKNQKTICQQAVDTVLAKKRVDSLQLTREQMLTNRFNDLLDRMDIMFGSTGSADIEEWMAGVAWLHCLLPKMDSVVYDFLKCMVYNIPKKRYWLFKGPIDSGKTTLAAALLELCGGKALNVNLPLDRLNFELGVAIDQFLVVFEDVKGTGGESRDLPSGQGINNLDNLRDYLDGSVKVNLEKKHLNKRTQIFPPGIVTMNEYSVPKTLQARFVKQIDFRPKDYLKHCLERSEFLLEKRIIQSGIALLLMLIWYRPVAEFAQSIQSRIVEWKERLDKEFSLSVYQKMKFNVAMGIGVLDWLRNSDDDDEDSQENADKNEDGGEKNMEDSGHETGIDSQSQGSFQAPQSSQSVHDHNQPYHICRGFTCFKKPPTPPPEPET
Chain of Beta Lactamase (Q932Y6 whole entry): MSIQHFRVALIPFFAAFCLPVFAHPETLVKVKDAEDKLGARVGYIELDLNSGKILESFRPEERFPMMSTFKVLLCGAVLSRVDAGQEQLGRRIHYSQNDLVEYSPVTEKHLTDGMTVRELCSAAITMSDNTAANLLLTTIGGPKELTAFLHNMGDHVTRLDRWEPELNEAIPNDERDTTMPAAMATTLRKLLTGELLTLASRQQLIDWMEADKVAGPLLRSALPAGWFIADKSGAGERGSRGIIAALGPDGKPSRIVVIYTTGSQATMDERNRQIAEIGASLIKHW
Chain of SUMO-activating enzyme (Q9UBE0 whole entry): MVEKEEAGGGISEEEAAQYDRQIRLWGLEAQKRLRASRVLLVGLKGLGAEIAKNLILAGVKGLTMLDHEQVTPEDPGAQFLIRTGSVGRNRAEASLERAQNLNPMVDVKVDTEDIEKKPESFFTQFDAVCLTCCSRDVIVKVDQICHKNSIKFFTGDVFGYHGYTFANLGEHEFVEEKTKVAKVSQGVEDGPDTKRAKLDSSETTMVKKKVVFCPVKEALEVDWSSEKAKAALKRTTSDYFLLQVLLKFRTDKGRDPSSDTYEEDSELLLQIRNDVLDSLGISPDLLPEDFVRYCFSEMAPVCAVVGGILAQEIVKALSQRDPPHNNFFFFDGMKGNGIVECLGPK
Chain of SUMO-activating enzyme (Q9UBT2 whole entry): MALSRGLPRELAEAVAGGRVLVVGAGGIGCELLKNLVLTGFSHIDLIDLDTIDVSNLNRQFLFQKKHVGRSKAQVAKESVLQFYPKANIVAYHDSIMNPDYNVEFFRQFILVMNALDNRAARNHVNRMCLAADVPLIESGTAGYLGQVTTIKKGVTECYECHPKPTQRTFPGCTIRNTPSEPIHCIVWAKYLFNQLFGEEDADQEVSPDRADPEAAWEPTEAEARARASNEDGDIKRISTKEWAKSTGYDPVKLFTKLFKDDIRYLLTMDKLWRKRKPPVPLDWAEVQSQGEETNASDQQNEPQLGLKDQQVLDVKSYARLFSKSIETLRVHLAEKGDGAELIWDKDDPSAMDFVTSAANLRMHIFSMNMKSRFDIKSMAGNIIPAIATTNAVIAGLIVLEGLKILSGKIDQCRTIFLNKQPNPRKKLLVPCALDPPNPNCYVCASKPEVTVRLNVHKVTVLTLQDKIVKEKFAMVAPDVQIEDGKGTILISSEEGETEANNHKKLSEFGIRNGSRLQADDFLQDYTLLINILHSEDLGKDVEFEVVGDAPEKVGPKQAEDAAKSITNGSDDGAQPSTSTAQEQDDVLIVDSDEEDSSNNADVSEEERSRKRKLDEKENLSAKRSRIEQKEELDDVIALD

Structure (SMILES): CC(=O)NC(c1ccc2ccccc2c1)c1ccc2cccnc2c1O (stereo not given)
IC50 [1]: 21.5 µM (inactive)

Structure (SMILES): CCOC(=O)C1=C(c2ccccc2)N=C(N)NC1c1ccc(OCc2ccc(Cl)cc2)c(OC)c1 (stereo not given)
EC50 [2]: 52.1 µM (inactive) | EC50 [3]: 42.5 µM (inactive)

Structure (SMILES): CCOC(=O)c1c(C)[nH]c2c1-c1ccccc1C(=O)C2=O
EC50 [4]: 1.57 µM (active)

Structure (SMILES): O=[N+]([O-])c1c(NCCO)cc(Sc2nc3ccccc3s2)c2nonc12
IC50 [5]: 21.2 µM (active) | IC50 [6]: 9.17 µM (active) | CC50 [7]: 22.9 µM (active)

EC50 [8]: 37.7 µM (inactive)
Structure (SMILES): O=C(c1ccccc1)c1coc2c1C(=O)c1ccccc1C2=O

Structure (SMILES): CCOC(=O)c1c(C)oc2c1c(/C=N/CCC(=O)O)c(O)c1ccccc12
IC50 [9]: 28.8 µM (active) | IC50 [10]: > 100 µM (inactive)
